System: mice skin
Experiment: In vivo photohypersensitivity of mice skin
Set-up: species or system nude mice
Settings: 0.3 mg/kg i.v.
Method: It is well known that some PDT agents result in photohypersensitivity of the skin, which causes significant inconvenience in the daily life of the patient. Typical signs of photohypersensitivity include redness and swelling of the skin, visible angiopathy along with the formation of skin debris and even eschar in server cases. To investigate whether the present photosensitizer particles may elicit photohypersensitivity in the patient, 0.3 mg/kg native CPLA photosensitizer particles (LN1 particles from Example 2.1, above) and 0.3 mg/kg gas-loaded CPLA photosensitizer particles (LA1 particles from Example 2.1, above) were respectively injected to the tail of nude mice via intravenous injection 3 hours prior to light irradiation (15, 40 or 100 J/cm^2). Foscan® (0.3 mg/kg) was used as the positive control, while 1×PBS (100 μL) was used as negative control.

photohypersensitivity of skin (15 or 40 J/cm^2): little to mild photohypersensitivity
photohypersensitivity of skin (100 J/cm^2): significant photohypersensitivity
SMILES: Oc1cccc(-c2c3nc(c(-c4cccc(O)c4)c4ccc([nH]4)c(-c4cccc(O)c4)c4nc(c(-c5cccc(O)c5)c5ccc2[nH]5)CC4)C=C3)c1 [Foscan®]
